8 molecules from patent publication EP0129947A2, “Contraceptive compositions based on esters of levo-norgestrel” (priority 1983, dated 1985) can be followed below.

The subject of one data set is female rats. The experiment in a line: estrus suppression assay (duration of suppression of vaginal cornification after one subcutaneous injection). It is filed as in vivo, rats of the Sprague-Dawley strain. Particulars: for durations of suppression: aqueous microcrystalline suspension, subcutaneous; for suppression of estrus compared with DMPA at 16 mg/rat: ester at 8 mg/rat, aqueous microcrystalline suspension (Figure 1); for duration of action in words: cyclic esters of the series of Table 1 and Fig. 1; for effect of formulation on results: aqueous microcrystalline suspension of particle size 3 to 10µ (50% cumulative oversize, Coulter). The procedure: These were subjected to a biological screening programme designed to uncover new and effective sustained- release injectable contraceptives, the compounds being tested as injectable oily solutions or aqueous suspensions. The initial test was to determine the duration of suppression of estrus in female rats, with DMPA and norethisterone enanthate being used as comparison-standards. The most promising compounds were then tested in primates.
The bioassay used to determine the duration of action of the contraceptive compositions involved measuring the suppression of estrus in female rats. The compositions were used at four dosage levels, i.e. 2, 4, 8 and 16 mg/rat.
The long-acting properties of each formulation were determined in estrus suppression assay employing virgin, mature (180-200 g) cycling rats of the Sprague-Dawley strain purchased from Charles River Laboratories, USA. Upon receipt the animals were smeared daily for cyclicity and only those animals showing two consecutive normal cycles were used. Each animal was injected subcutaneously with 0.8 ml of the test preparation on the same day regardless of the stage of the cycle. Each compound was initially tested on ten rats. A series of initial tests with injections of 16 mg/animal were followed by studies at dose levels of 8, 4 and 2 mg/animal where necessary. An aqueous microcrystalline suspension of medroxyprogesterone acetate was used as standard. Daily smears were taken starting on the day after injection and continued until such time that cornification of vaginal epithelium was observed and cycling was re-established. Duration of cornification suppression is expressed as the total number of days minus two. The appearance of cornification was not always followed by the return of normal estrus cycles.

Data set [1] is described as follows: pharmacokinetics in the monkey (circulating levo norgestrel after injection). Particulars: monkey Macaca mulata.
The mark [2] stands for this setting: 8 mg/rat, majority of experiments terminated at 91 days post injection.

Regarding “norethisterone enanthate [reference compound]”, the average duration in the data set on female rats (oily solution, rat, dose not given) is on record as 23.1 days.
As to `C#C[C@]1(OC(=O)CCC)CC[C@H]2[C@@H]3CCC4=CC(=O)CC[C@@H]4[C@H]3CC[C@@]21CC` [levo-norgestrel butanoate], the durations of suppression is given as 34.4 days with female rats (2 mg/rat), 65.1 days in the data set on female rats (4 mg/rat) and below 91 days with female rats (setting [2]). For the same molecule, in the data set with female rats, the “suppression of estrus compared with DMPA at 16 mg/rat” value is listed as “better suppression than DMPA at a dosage of 16 mg/rat”.
Regarding `C#C[C@]1(OC(=O)C2CCC2)CC[C@H]2[C@@H]3CCC4=CC(=O)CC[C@@H]4[C@H]3CC[C@@]21CC` [levo-norgestrel cyclobutylcarboxylate], the “time during which measurable levels of levo norgestrel are still present in the circulation after injection” value in data set [1] is on record as above 100 days. Moreover, the durations of suppression in the data set with female rats (2 mg/rat) was 31.9 days; in the data set on female rats (4 mg/rat), 55.7 days; in the data set on female rats (setting [2]), 89.2 days; in the data set on female rats (16 mg/rat), above 91 days. For the same molecule, the “effect of formulation on return to estrus” value in the data set on female rats (Figure II: aqueous microcrystalline suspension 3 to 10µ versus solution in sesame oil or in ethyl oleate, groups of ten rats) was “longer term effect of the ester when micro-dispersed in aqueous medium”. The “duration of action in words” value with female rats is “long-acting”. Moreover, the “suppression of estrus compared with DMPA at 16 mg/rat” value was “better suppression than DMPA at a dosage of 16 mg/rat” in the data set with female rats (listed as cyclobutyl carboxylate) and “the same inhibition as DMPA at 16 mg” in the data set on female rats (listed as cyclobutylcarboxylate). Besides, in the data set with female rats (microcrystalline suspension in ethyl oleate (Table 11)), the “activity relative to the aqueous suspension” value is recorded as “approximately 40%”. The activity by formulation entry in the data set with female rats (solution in a 50:50 mixture of ethyl oleate and benzyl benzoate (BB), compared with the suspensions) is given as “Further reduction in activity”.
For the molecule `C#C[C@]1(OC(=O)C2CCCC2)CC[C@H]2[C@@H]3CCC4=CC(=O)CC[C@@H]4[C@H]3CC[C@@]21CC` [cyclopentylcarboxylate, Levo-norgestrel 17β-cyclopentyl carboxylate, reference compound], in the data set on female rats (16 mg dose), the effectiveness in words result was “relatively ineffective”. The “duration of action in words” value with female rats was “short acting”.
Take `C#C[C@]1(OC(=O)C2CCCCC2)CC[C@H]2[C@@H]3CCC4=CC(=NO)CC[C@@H]4[C@H]3CC[C@@]21CC` [levo-norgestrel cyclohexylcarboxylate 3-oxime]: the “effect of formulation on results” value in the data set on female rats was “better results”.
Turning to `C#C[C@]1(OC(=O)C2CC2)CC[C@H]2[C@@H]3CCC4=CC(=O)CC[C@@H]4[C@H]3CC[C@@]21CC` [levo-norgestrel cyclopropylcarboxylate], the durations of suppression with female rats (4 mg/rat) is 55.6 days. The molecule further showed a durations of suppression in the data set with female rats (setting [2]) of 74.0 days. In the data set with female rats, the “duration of action in words” value is reported as “long-acting” and the “suppression of estrus compared with DMPA at 16 mg/rat” value is given as “better suppression than DMPA at a dosage of 16 mg/rat”.
`C#C[C@]1(OC(=O)C2CCCC2)CC[C@H]2[C@@H]3CCC4=CC(=NO)CC[C@@H]4[C@H]3CC[C@@]21CC` [levo-norgestrel cyclopentylcarboxylate 3-oxime]: in the data set with female rats, the “effect of formulation on results” value is given as “better results”.
On to `CC(=O)O[C@]1(C(C)=O)CC[C@H]2[C@@H]3C[C@H](C)C4=CC(=O)CC[C@]4(C)[C@H]3CC[C@@]21C` [DMPA, medroxyprogesterone acetate, reference compound], for which the durations of suppression in the data set with female rats (2 mg/rat) was 20.9 days; in the data set with female rats (4 mg/rat), 28.2 days; in the data set with female rats (setting [2]) it was 55.5 days; in the data set with female rats (16 mg/rat) it was 60.0 days. This molecule yielded an average suppression duration with female rats (microcrystalline suspension, rat, dose not given) of 63.7 days.
